For data set [1] the following is noted: mouse, in vivo.
In data set [2] the test system is HdhQ111 cells. Kind of data set: Mitochondrial fragmentation assay. The data set is classed as cell-based, mouse. The conditions noted are these: compared to vehicle treatment group, at least 100 cells per group. The protocol:
FIG. 8: Mitochondrial fragmentation assay. The percentage of HdhQ111 cells with fragmented mitochondria relative to the total number of cells was quantitated. At least 100 cells per group were counted.
FIG. 9: Mitochondrial fragmentation assay. Mitochondrial morphology was determined by staining cells with anti-Tom20 antibody. Nuclei: Hoechst 33342 stain. […] Scale Bars: 60 μm; 12 μm for inset.
Mitochondrial Fragmentation Methods: As preventing the fragmentation of the mitochondria is important for maintaining the health of striatal cells in the HD in vitro model, the PLP's abilities were tested in this regard.

In data set [3] the target is T1, interaction between VCP and mtHtt (Homo sapiens, UniProt P55072).
T1 construct: GFP; expressed in transfected cells; host or cells: HEK293
Briefly: VCP binding assay: association of VCP to mtHtt by immunoprecipitation and western blot in HEK293 cells. The data set is classed as cell-based. Particulars: HEK293 cells co-transfected with GFP-VCP and myc-Q73 FL, 3 μM, three doses. The method, then: Therefore, target engagement protein binding assays were conducted. HEK293 cells were cultured and plated one day before treatment. Cells were pre-treated with HV3-TAT or PLPs at 3 μM for 2 h. Cells were then co-transfected with GFP-VCP and myc-Q73 FL plasmids. Cells were treated with a second dose of peptide or PLPs 6 hours after transfection, and a final third dose of peptide or PLPs treatment was administered 24 hours after transfection. Cell total lysate was harvested 48 hours after transfection, and to confirm binding of PLPs to VCP in cells, association of VCP to mtHtt was quantified by immunoprecipitation (IP) followed by western blot upon treatment of HV3-TAT peptide and PLPs.

Data set [4] deals with HdhQ111 cells. Kind of data set: Cell viability (cell rescue) of serum-starved HdhQ111 cells. The data set is classed as cell-based, mouse. Particulars: 3 μM with respect to peptide, once a day for 3 days; compared to the vehicle control. The method, then: FIG. 3A: Cell viability of HV3-TAT peptide and PLPs. Compounds treated to the HdhQ111 cells once a day for 3 days. Concentration was 3 μM with respect to peptide. FIG. 3B: VCP binding assay results for HV3-TAT, P1, P2, and P4.
Cell Viability Methods: In vitro assays were carried out to examine the bioactivity of the PLPs, P1, P2, P3, and P4 and to compare against the known, active HV3-TAT. […] HdhQ111 cells were immortalized from knock-in mice carrying 111 CAG repeats in the mouse Htt gene.
To verify that the PLPs retain bioactivity after being exposed to enzymes or serum treatments, the viability of HD mouse mutant striatal HdhQ111 cells was assessed following treatment with HV3-TAT and P1. […] Cells were maintained at 33° C. and 5% CO2 with a relative humidity of 95%. HdQ111 cells were plated in 96-well plates at a density of 5000 per well and then left to attach for 24 h. Cells were treated with HV3-TAT or PLPs at 3 μM with respect to peptide once a day, for 3 days. The medium was replaced every day. After 72 h, cells were washed 3 times with PBS buffer. At this point, 20 μL of CTB reagent in 80 uL of medium was added, and the cells incubated for 3 hours at 37° C. Fluorescence was measured at 590 nm with excitation at 560 nm using a Perkin Elmer EnSpire plate reader. The average background fluorescence of CTB in media without cells was subtracted from the average fluorescence readings of the experimental wells. Viability was calculated as the average background-subtracted signal in a well compared to that of a negative control well (treatment with vehicle or media). Three replicates were performed for each independent sample. 10% DMSO was used as a positive control and untreated cells in complete medium as a negative control. Viability is reported as a percentage of untreated cells.

The test system of data set [5] is HdhQ111 cells. Kind of data set: Mitochondrial localization in live HdhQ111 cells. Particulars: 3 μM, Mitotracker staining. The data set is classed as cell-based, mouse. The protocol:
FIG. 7: Mitochondrial localization in live HdhQ111 cells. HdhQ111 cells were treated with HV3-TAT-Rho peptide, P1-Rho, and rhodamine dye alone at a concentration of 3 μM. Yellow (i.e., “localization” in FIG. 7) indicates colocalization of green and red channels, signifying localization to the mitochondria. Mitochondria: Mitotracker Green FM (green channel). Material: Rhodamine (red channel). Nuclei: Hoechst 33342 stain (blue channel). Scale Bars: 60 μm; 12 μm for inset.
Mitochondrial Localization Methods: A decisive pathologic hallmark for HdhQ111 cells is mitochondrial fragmentation. Since the mitochondrial membrane is the specific intracellular target location for the designed system, mitochondrial localization of P1-Rho in HdhQ111 cells was evaluated. To visualize mitochondrial localization, the mitochondria were stained with Mito Tracker.

In data set [6] the test system is HdhQ111 cells. Briefly: Cell uptake by confocal microscopy and flow cytometry. Format: cell-based, mouse. Particulars: compared to the HV3-TAT-Rho peptide and rhodamine dye control. The method, then: Scale bars: 60 μm; 12 μm for inset. Cell Membrane: wheat germ agglutinin-Alexa 488 (green channel). Material: Rhodamine (red channel). Nuclei: Hoechst 33342 stain (blue channel).
Cell Uptake Methods: A major drawback for most peptide-based drugs is poor innate cell membrane permeability, such that many peptide-based drugs fail to reach their putative intracellular targets. Cellular uptake was evaluated by confocal microscopy and flow cytometry using a rhodamine dye labeled version of HV3-TAT (HV3-TAT-Rho) and a rhodamine labeled version of P1 (P1-Rho, e.g., as shown in FIG. 28A). FIG. 28B provides the relative fluorescent intensities of rhodamine alone, HV3-TAT-Rho, and P1-Rho—rhodamine showing near 1:1 addition of dye on to compounds.

Data set [7] has as its system HdhQ111 cells. Kind of data set: Accumulation assay, flow cytometry 2 and 7 days after a single treatment. The data set is classed as cell-based, mouse. Particulars: two and seven days after one treatment.
In the next data set the test system is pepsin. Briefly: pepsin. The conditions noted are these: 37° C., up to 450 min.
Data set [8] in a line: enzymes (0.1 μM) in DPBS (pH 7.4) or hydrochloric acid solution (pH 2). The conditions noted are these: 37° C.
Data set [9] in a line: Dulbecco's modified Eagle medium (DMEM) supplemented with 25% fetal bovine serum (FBS). Particulars: 37° C.
Data set [10] in a line: Dulbecco's modified Eagle medium (DMEM) supplemented with 10% fetal bovine serum (FBS). The conditions noted are these: 37° C.

Where no end group is shown, it is not given here.

T1 sequence (P55072 whole entry): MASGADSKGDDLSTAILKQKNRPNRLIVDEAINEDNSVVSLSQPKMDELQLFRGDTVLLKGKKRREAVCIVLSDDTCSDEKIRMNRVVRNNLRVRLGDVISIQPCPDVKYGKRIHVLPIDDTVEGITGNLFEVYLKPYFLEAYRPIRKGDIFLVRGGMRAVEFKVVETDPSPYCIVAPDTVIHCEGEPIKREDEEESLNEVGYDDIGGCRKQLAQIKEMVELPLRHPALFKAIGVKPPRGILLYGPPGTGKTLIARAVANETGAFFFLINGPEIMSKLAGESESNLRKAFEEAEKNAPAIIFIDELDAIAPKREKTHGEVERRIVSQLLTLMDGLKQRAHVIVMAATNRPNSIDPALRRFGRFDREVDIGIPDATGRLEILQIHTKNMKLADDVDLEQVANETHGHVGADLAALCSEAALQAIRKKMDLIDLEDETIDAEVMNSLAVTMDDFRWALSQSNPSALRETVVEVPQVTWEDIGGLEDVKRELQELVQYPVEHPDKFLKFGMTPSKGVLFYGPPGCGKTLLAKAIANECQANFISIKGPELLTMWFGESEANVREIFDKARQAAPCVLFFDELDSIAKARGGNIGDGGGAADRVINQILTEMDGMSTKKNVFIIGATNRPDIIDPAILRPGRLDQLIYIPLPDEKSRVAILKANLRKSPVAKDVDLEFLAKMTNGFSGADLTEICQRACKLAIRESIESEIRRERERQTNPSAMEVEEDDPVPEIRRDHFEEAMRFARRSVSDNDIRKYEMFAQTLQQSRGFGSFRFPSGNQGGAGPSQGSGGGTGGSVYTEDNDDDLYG

Take “P1-Gd: P1 PLP terminated with the Gd-DOTA terminating agent (contrast agent tag) for ICPMS quantification (HVLVMSATRR-NH2; not fully specified (N-terminus); also: side chains of polynorbornene homopolymer (PLP, ROMP), Gd-DOTA terminating agent on polymer terminus)”: in [1], the “biodistribution, main organs” value is “majority of the compound injected ends up in the liver and kidney”; the “detection in the CNS” value is “detectable in the CNS”; the “increase in half-life compared to the HV3-TAT peptide” value worked out at 3000 fold. Moreover, in data set [1] (iv, 10 mg/kg), the distribution half-life was 0.333 h and the elimination half-life is 152 h.
Consider “P4: PLP homopolymer having peptide side chains of SEQ ID: 4 (HVLVMSATKKKK) (HVLVMSATKKKK-NH2; not fully specified (N-terminus); also: side chains of polynorbornene homopolymer (PLP))”, for which, in the data set on HdhQ111 cells [2], the fragmented mitochondria entry was “significantly fewer fragmented mitochondria”. Further, the “association of VCP to mtHtt (VCP binding)” value in [3] is given as “exhibited evidence for binding”. Besides, the cell viability result in the data set with HdhQ111 cells [4] is “higher significance than P3”.
Take “P1-Rho: rhodamine labeled version of P1 (HVLVMSATRR-NH2; not fully specified (N-terminus); also: side chains of polynorbornene homopolymer (PLP), rhodamine label (site not given here))”: the mitochondrial localization result in the data set with HdhQ111 cells [5] is “exhibited overlapping signals with mitochondria”. Moreover, the “cell association by flow cytometry” value in the data set on HdhQ111 cells [6] is given as “significantly better cell association”. In addition, the “presence of compound in cells after one initial treatment” value with HdhQ111 cells [7] is recorded as “detected”.
“PLP homopolymer having peptide side chains of SEQ ID: 1 (HVLVMSATRR)”: the not cleaved entry in the data set with pepsin is recorded as “no cleavage observed for up to 450 min”; in [8], “maintained molecular weight running together with the untreated P1 control”; in [9] it was “stability of P1 seen with serum treatments”; in [10], “stability of P1 seen with serum treatments”.
With “P2: PLP homopolymer having peptide side chains of SEQ ID: 2 (HVLVMSATKK) (HVLVMSATKK-NH2; not fully specified (N-terminus); also: side chains of polynorbornene homopolymer (PLP))”, the cell viability entry in the data set with HdhQ111 cells [4] is on record as “higher significance than P3”.

For the origin of these results see patent publication US20240110004A1 (Northwestern University, priority 2022, published 2024).
